This is an account of results in patent publication US20090324691A1, “METHODS AND OPHTHALMIC DEVICES USED IN THE TREATMENT OF OCULAR ALLERGIES” (priority 2008, published 2009).

Structures can show the parent of a compound that is named as a salt.

Data set [1] in a line: Uptake of ketotifen fumarate to an ophthalmic device over time (FIG. 1). Particulars: 3.0 mL of 43 ug/mL ketotifen fumarate packing solution per lens. Format: physicochemical. As for the experimental part:
FIG. 1 illustrates the uptake of ketotifen fumarate to an ophthalmic device over time.
Three lots of 1-Day Acuvue® Brand Contact Lenses (etafilcon A) were cured and hydrated with deionized water. These lenses were inserted into glass vials containing 3.0 mL of a 43 ug/mL ketotifen fumarate packing solution per lens (packing solution formulation: borate buffered saline containing 0.83% sodium chloride, 0.9% boric acid, 100 ug/mL of dicalcium DTPA, and 0.1% sodium borate decahydrate ). The soaked and harvested at 5, 15, 30, 90 and 180 minutes and extracted and assayed as in Example 1 to determine the amount of ketotifen per treated lens. This graph illustrates that a minimum effective amount of in an etafilcon A contact lens is attained within 15 minutes of treatment.

For data set [2] the following is noted: concentrations higher than 0.025% (0.25 mg/mL), topical solution; cited from earlier work.

`CN1CCC(=C2c3ccccc3CC(=O)c3sccc32)CC1` [ketotifen fumarate]: in data set [1], the “time of treatment to attain a minimum effective amount in an etafilcon A contact lens” value is not above 15 min. Also, the “ocular tolerability of higher concentrations” value in data set [2] was “sting and burn upon initial administration to the eye”.
